{"source": "patent US9453242B2", "about": "“Method and culture medium for preparing mammalian ovum or embryo in which zona pellucida has been thinned or eliminated, and method for fertilization using mammalian ovum prepared by same method” (NATIONAL UNIVERISTY CORPORATION KUMAMOTO UNIVERSITY, priority 2010, dated 2016)", "key": {"[1]": {"tested_on": "protein thiol in zona pellucida", "details": "glutathione 0.25 to 2.0 mM, 37° C., 1 hour; Alexa Fluor 488 C5-maleimide", "experimental": "Mouse fresh unfertilized ovums in which cumulus cells had been removed prepared according to the above-described “1. Preparation of oocyte” were prepared, then, 100 μl of an HTF culture medium containing glutathione at various concentrations (0, 0.25, 0.5, 0.75, 1.0, 1.25, 1.5 and 2.0 mM) was dropped onto the bottom of a petri dish, and 50 embryos were inserted into this, and treated at 37° C. for 1 hour. Thereafter, a protein thiol in zona pellucida was detected by using a thiol-reactive fluorescent dye (Alexa Fluor 488 C5-maleimide)."}, "[2]": {"tested_on": "mouse embryo in the early stages of development (8-cell stage embryo)", "details": "glutathione 100 mM, 20° C., 90 seconds", "source_text": "The zona pellucida of a mouse embryo in the early stages of development (8-cell stage embryo) used for production of a genetically modified mouse was eliminated."}, "[3]": {"experimental": "(§1) Mouse fresh unfertilized ovums in which cumulus cells had been removed prepared according to the above-described “1. Preparation of oocyte” were prepared, then, 10 μl of an HTF culture medium containing glutathione at various concentrations (5, 10, 25, 50, 100, 200 and 300 mM) was dropped onto the bottom of a petri dish, and 20 ovums were inserted into this, and the time until elimination of zona pellucida was measured."}, "[4]": {"tested_on": "zona pellucida of mouse fresh unfertilized ovums", "experimental": "Mouse fresh unfertilized ovums in which cumulus cells had been removed prepared according to the above-described “1. Preparation of ovum” were prepared. The ovums were treated with an HTF culture medium containing glutathione at a concentration of 100 mM (30.7 mg/ml) at 20° C. for 90 seconds. The operation conducted is explained referring to FIG. 7. Onto the bottom of a petri dish, 10 μl of a glutathione-containing HTF culture medium was dropped, and 10 embryos were inserted into this. […] After confirmation of disappearance of zona pellucida, the embryos were immediately diluted with 1000 μl of an HTF culture medium containing no glutathione, for avoiding damage on the embryos. Thereafter, the zona pellucida-eliminated embryos were transferred into a 100 μl drop of HTF, and further, transferred into a 100 μl drop of HTF twice, thus continuing incubation.\nElimination of the zona pellucida of an unfertilized ovum was conducted in the same manner as in Example 4 excepting use of an HTF culture medium having a glutathione concentration of 50 mM (15.4 mg/ml).\nas §1"}, "[5]": {"details": "glutathione 100 mM (30.7 mg/ml), 20° C."}}, "note": "Read-outs that look alike come from different tables or passages of the source."}
{"smiles": "N[C@@H](CCC(=O)N[C@@H](CS)C(=O)NCC(=O)O)C(=O)O", "note": "[glutathione, reduced glutathione]", "values": [{"measurement": "fluorescent intensity in zona pellucida (free thiol group)", "setting": "[1]", "value": "the fluorescent intensity in zona pellucida increased depending on the concentration of glutathione"}, {"measurement": "elimination of zona pellucida of 8-cell stage embryo", "setting": "[2]", "value": "elimination of zona pellucida from a 8-cell stage embryo"}, {"measurement": "pH", "setting": "[3]; HTF culture medium with glutathione 5 mM", "value": 7.3}, {"measurement": "pH", "setting": "[3]; HTF culture medium with glutathione 10 mM", "value": 7.4}, {"measurement": "pH", "setting": "[3]; HTF culture medium with glutathione 25 mM", "value": 6.1}, {"measurement": "pH", "setting": "[3]; HTF culture medium with glutathione 50 mM", "value": 4.0}, {"measurement": "pH", "setting": "[3]; HTF culture medium with glutathione 100 mM", "value": 3.5}, {"measurement": "pH", "setting": "[3]; HTF culture medium with glutathione 200 mM", "value": 3.1}, {"measurement": "pH", "setting": "[3]; HTF culture medium with glutathione 300 mM", "value": 3.1}, {"measurement": "glutathione concentration at which zona pellucida was eliminated", "setting": "[4]", "value": "≥ 50", "unit": "mM"}, {"measurement": "condition of zona pellucida", "setting": "[4]; glutathione 5 mM in HTF", "value": "thinning"}, {"measurement": "condition of zona pellucida", "setting": "[4]; glutathione 10 mM in HTF", "value": "thinning"}, {"measurement": "condition of zona pellucida", "setting": "[4]; glutathione 25 mM in HTF", "value": "thinning"}, {"measurement": "condition of zona pellucida", "setting": "[4]; glutathione 50 mM in HTF", "value": "elimination"}, {"measurement": "time (second) necessary for lysis of zona pellucida", "setting": "[4]; glutathione 50 mM in HTF", "value": "<1,500 second"}, {"measurement": "zona pellucida-eliminated embryos produced", "setting": "[4]; glutathione 50 mM, using 20 embryos, 2 experiments", "value": 20}, {"measurement": "time after which zona pellucida began to become thin (swell)", "setting": "[4]; [5]", "value": 30, "unit": "s"}, {"measurement": "time after which zona pellucida disappeared completely", "setting": "[4]; [5]", "value": 90, "unit": "s"}, {"measurement": "condition of zona pellucida", "setting": "[4]; glutathione 100 mM in HTF", "value": "elimination"}, {"measurement": "time (second) necessary for lysis of zona pellucida", "setting": "[4]; glutathione 100 mM in HTF", "value": "<60", "unit": "s"}, {"measurement": "zona pellucida-eliminated embryos produced", "setting": "[4]; glutathione 100 mM, using 70 embryos, 10 experiments", "value": 70}, {"measurement": "condition of zona pellucida", "setting": "[4]; glutathione 200 mM in HTF", "value": "elimination"}, {"measurement": "time (second) necessary for lysis of zona pellucida", "setting": "[4]; glutathione 200 mM in HTF", "value": "<50", "unit": "s"}, {"measurement": "condition of zona pellucida", "setting": "[4]; glutathione 300 mM in HTF", "value": "elimination"}, {"measurement": "time (second) necessary for lysis of zona pellucida", "setting": "[4]; glutathione 300 mM in HTF", "value": "<10", "unit": "s"}]}
